What is called IC50 is the point on the concentration scale where inhibition reaches its midpoint.

Where “and” joins values, the source holds several entries; their conditions need not be identical. Equal entries are not always repeated. Where two headings read alike, the source gives them in different places.

One data set relates to NCI-H358 (K-Ras G12C). In words: pERK potency assay, NCI-H358. Format: cell-based. Conditions: Homo sapiens; NCI-H358 cells, 4 hours incubation with compound. As to the method:
The purpose of this assay was to measure the ability of test compounds to inhibit K-Ras in cells. Activated K-Ras induces increased phosphorylation of ERK at Threonine 202 and Tyrosine 204 (pERK). This procedure measures a decrease in cellular pERK in response to test compounds. The procedure described below in NCI-H358 cells is applicable to K-Ras G12C. […]
NCI-H358 cells were grown and maintained using media and procedures recommended by the ATCC. On the day prior to compound addition, cells were plated in 384-well cell culture plates (40 μl/well) and grown overnight in a 37° C., 5% CO2 incubator. Test compounds were prepared in 10, 3-fold dilutions in DMSO, with a high concentration of 10 mM. On the day of assay, 40 nL of test compound was added to each well of cell culture plate using an Echo550 liquid handler (LabCyte®). Concentrations of test compound were tested in duplicate. After compound addition, cells were incubated 4 hours at 37° C., 5% CO2. Following incubation, culture medium was removed and cells were washed once with phosphate buffered saline.
In some experiments, cellular pERK level was determined using the AlphaLISA SureFire Ultra p-ERK1/2 Assay Kit (PerkinElmer). Cells were lysed in 25 μL lysis buffer, with shaking at 600 RPM at room temperature. Lysate (10 μL) was transferred to a 384-well Opti-plate (PerkinElmer) and 5 μL acceptor mix was added. After a 2-hour incubation in the dark, 5 μL donor mix was added, the plate was sealed, and incubated 2 hours at room temperature. Signal was read on an Envision plate reader (PerkinElmer) using standard AlphaLISA settings. Analysis of raw data was carried out in Excel (Microsoft) and Prism (GraphPad). Signal was plotted vs. the decadal logarithm of compound concentration, and IC50 was determined by fitting a 4-parameter sigmoidal concentration response model.
In other experiments, cellular pERK was determined by In-Cell Western. Following compound treatment, cells were washed twice with 200 μL tris buffered saline (TBS) and fixed for 15 minutes with 150 μL 4% formaldehyde in TBS. Fixed cells were washed 4 times for 5 minutes with TBS containing 0.1% Triton X-100 (TBST) and then blocked with 100 μL Odyssey blocking buffer (LI-COR) for 60 minutes at room temperature. Primary antibody (pERK, CST-4370, Cell Signaling Technology) was diluted 1:200 in blocking buffer, and 50 μL were added to each well and incubated overnight at 4° C. Cells were washed 4 times for 5 minutes with TBST. Secondary antibody (IR-800CW rabbit, LI-COR, diluted 1:800) and DNA stain DRAQ5 (LI-COR, diluted 1:2000) were added and incubated 1-2 hours at room temperature. Cells were washed 4 times for 5 minutes with TBST. Plates were scanned on a Li-COR Odyssey CLx Imager. Analysis of raw data was carried out in Excel (Microsoft) and Prism (GraphPad). Signal was plotted vs. the decadal logarithm of compound concentration, and IC50 was determined by fitting a 4-parameter sigmoidal concentration response model.

For data set [1] the following is noted: 18-membered ring, DCM.

Take `C=CC(=O)N1CC2(CCN(C(=O)N(C)[C@H](C(=O)N[C@H]3C[C@H]4CN(CCO4)c4ccc5c(c4)c(c(-c4cccnc4[C@H](C)OC)n5CC)CC(C)(C)COC(=O)[C@@H]4CCCN(N4)C3=O)C(C)C)CC2)C1` (atropisomer, axis not shown) [EA121]: the IC50 with NCI-H358 (K-Ras G12C) was over 1000 nM. For the compound “tert-butyl ((6^3S,4S,Z)-11-ethyl-1^2-(2-((S)-1-methoxyethyl)pyridin-3-yl)-10,10-dimethyl-5,7-dioxo-6^1,6^2,6^3,6^4,6^5,6^6-hexahydro-1^1H-8-oxa-2(5,3)-oxadiazola-1(5,3)-indola-6(1,3)-pyridazinacycloundecaphane-4-yl)carbamate”, the ring closure, isolated yield in data set [1] (ester bond, EDCI/HOBt/DIEA, 6.8 mM) stood at 18%. As to `C=CC(=O)N1CCOC2(CCN(C(=O)N(C)[C@H](C(=O)N[C@H]3Cc4nccc(n4)-c4ccc5c(c4)c(c(-c4cccnc4[C@H](C)OC)n5CC)CC(C)(C)COC(=O)[C@@H]4CCCN(N4)C3=O)C(C)C)CC2)C1` (atropisomer, axis not shown) [EA191], the IC50 with NCI-H358 (K-Ras G12C) was over 1000 nM. With `CO[C@@H](C)c1ncc(N2CCN3CCOC[C@@H]3C2)cc1-c1c2c3cc(ccc3n1CC(F)(F)F)-c1cccc(c1)C[C@H](NC(=O)OC(C)(C)C)C(=O)N1CCC[C@H](N1)C(=O)OCC(C)(C)C2`, the ring closure, isolated yield in data set [1] (from CO[C@@H](C)c1ncc(N2CCN3CCOC[C@@H]3C2)cc1-c1c(CC(C)(C)CO)c2cc(-c3cccc(C[C@H](NC(=O)OC(C)(C)C)C(=O)N4CCC[C@@H](C(=O)O)N4)c3)ccc2n1CC(F)(F)F, ester bond, EDCI/HOBt/DIPEA, 5.3 mM, 16.0 h) amounted to 98%. For `CCn1c(-c2cc(N3CCN4CCOC[C@@H]4C3)cnc2[C@H](C)OC)c2c3cc(ccc31)C1=CCCN(C1)C[C@H](NC(=O)OC(C)(C)C)C(=O)N1CCC[C@H](N1)C(=O)OCC(C)(C)C2`, the ring closure, isolated yield in data set [1] (from CCn1c(-c2cc(N3CCN4CCOC[C@@H]4C3)cnc2[C@H](C)OC)c(CC(C)(C)CO)c2cc(C3=CCCN(C[C@H](NC(=O)OC(C)(C)C)C(=O)N4CCC[C@@H](C(=O)O)N4)C3)ccc21, ester bond, EDC.HCl/HOBt/DIEA, 11.3 mM, 0.0 °C, 2.0 h) stood at 67%. Turning to “prop-2-en-1-yl N-[(7S,13S,19M)-21-ethyl-20-[2-[(1 S)-1-methoxyethyl]pyridin-3-yl]-17,17-dimethyl-8,14-dioxo-4,15-dioxa-3,9,21,27,28-pentaazapentacyclo[17.5.2.1^[2,5]0.1^[9,13]0.0^[22,26]]octacosa-1(25),2,5(28),19,22(26),23-hexaen-7-yl]carbamate”, in data set [1] (amide bond, HATU/DIEA, 139.0 mM), the ring closure, isolated yield was determined as 33%. With `CCn1c(-c2cccnc2[C@H](C)OC)c2c3cc(ccc31)C1=CCCN(C1)C[C@H](NC(=O)[C@H](C(C)C)N(C)C(=O)N1CCC3(CCN(C(=O)/C=C/CN(C)C)C3)CC1)C(=O)N1CCC[C@H](N1)C(=O)OCC(C)(C)C2` (atropisomer, axis not shown) [EA192], in the data set on NCI-H358 (K-Ras G12C), the IC50 is over 1000 nM. The same measure, in the same setting: the figure for `C=CC(=O)N1CCOC2(CCN(C(=O)N(C)[C@H](C(=O)N[C@H]3Cc4cncc(n4)-c4ccc5c(c4)c(c(-c4cccnc4[C@H](C)OC)n5CC)CC(C)(C)COC(=O)[C@@H]4CCCN(N4)C3=O)C(C)C)CC2)C1` (atropisomer, axis not shown) [EA36] is over 1000 nM; for `C=CC(=O)N1CCN(CC)C2(CCN(C(=O)N(C)[C@H](C(=O)N[C@H]3C[C@H]4CN(CCO4)c4ccc5c(c4)c(c(-c4cccnc4[C@H](C)OC)n5CC)CC(C)(C)COC(=O)[C@@H]4CCCN(N4)C3=O)C(C)C)CC2)C1` (atropisomer, axis not shown) [EA38] it is over 1000 nM; for `C=CC(=O)N1CCN(C)C2(CCN(C(=O)N(C)[C@H](C(=O)N[C@H]3C[C@H]4CN(CCO4)c4ccc5c(c4)c(c(-c4cccnc4[C@H](C)OC)n5CC)CC(C)(C)COC(=O)[C@@H]4CCCN(N4)C3=O)C(C)C)CC2)C1` (atropisomer, axis not shown) [EA189] it is over 1000 nM. The same measure, in the same setting: in the case of `C=CC(=O)N1CCOC2(C1)CN(C(=O)N(C)[C@H](C(=O)N[C@H]1C[C@H]3CN(CCO3)c3ccc4c(c3)c(c(-c3cccnc3[C@H](C)OC)n4CC)CC(C)(C)COC(=O)[C@@H]3CCCN(N3)C1=O)C(C)C)C2` (atropisomer, axis not shown) [EA136] it was over 1000 nM.

`C=CC(=O)N1CCOC2(CCN(C(=O)N(C)[C@H](C(=O)N[C@H]3C[C@@]4(C)CN(CCO4)c4ccc5c(c4)c(c(-c4cccnc4[C@H](C)OC)n5CC)CC(C)(C)COC(=O)[C@@H]4CCCN(N4)C3=O)C(C)C)CC2)C1` (atropisomer, axis not shown) [EA130]: in the data set with NCI-H358 (K-Ras G12C), the IC50 is over 890 nM. On the same count and under the same terms, in the case of `C=CC(=O)N1COC2(CCN(C(=O)N(C)[C@H](C(=O)N[C@H]3CC4=NC=C(O4)c4ccc5c(c4)c(c(-c4cccnc4[C@H](C)OC)n5CC)CC(C)(C)COC(=O)[C@@H]4CCCN(N4)C3=O)C(C)C)CC2)C1` (atropisomer, axis not shown) [EA37] it was over 1000 nM. `CCn1c(-c2cc(N3CCN4CCCC[C@@H]4C3)cnc2[C@H](C)OC)c2c3cc(ccc31)-c1cccc(c1)C[C@H](NC(=O)OC(C)(C)C)C(=O)N1CCC[C@H](N1)C(=O)OCC(C)(C)C2` had a ring closure, isolated yield in data set [1] (from CCn1c(-c2cc(N3CCN4CCCC[C@@H]4C3)cnc2[C@H](C)OC)c(CC(C)(C)CO)c2cc(-c3cccc(C[C@H](NC(=O)OC(C)(C)C)C(=O)N4CCC[C@@H](C(=O)O)N4)c3)ccc21, ester bond, EDCI/HOBt/DIPEA, 11.3 mM, 16.0 h) of 62%. In data set [1] (from CO[C@@H](C)c1ncccc1-c1c(CC(C)(C)COC(=O)[C@@H]2CCCNN2)c2cc(-c3coc(C[C@H](NC(=O)OCc4ccccc4)C(=O)O)n3)ccc2n1CC(F)(F)F, amide bond, EDCI/HOBt/DIEA, 6.3 mM, 16.0 h), `CO[C@@H](C)c1ncccc1-c1c2c3cc(ccc3n1CC(F)(F)F)-c1coc(n1)C[C@H](NC(=O)OCc1ccccc1)C(=O)N1CCC[C@H](N1)C(=O)OCC(C)(C)C2` had a ring closure, isolated yield of 21%. Compound `CO[C@@H](C)c1ncccc1-c1c2c3cc(ccc3n1CC(F)(F)F)C1CCN(C1)C[C@H](NC(=O)OC(C)(C)C)C(=O)N1CCC[C@H](N1)C(=O)OCC(C)(C)C2` returned a ring closure, isolated yield in data set [1] (from CO[C@@H](C)c1ncccc1-c1c(CC(C)(C)CO)c2cc(C3CCN(C[C@H](NC(=O)OC(C)(C)C)C(=O)N4CCC[C@@H](C(=O)O)N4)C3)ccc2n1CC(F)(F)F, ester bond, EDCI/HOBt/DIEA, 7.1 mM, 16.0 h) of 21%. For `C=CC(=O)N1CCOC2(CCN(C(=O)N(C)[C@H](C(=O)N[C@H]3Cc4cncc(c4)-c4ccc5c(c4)c(c(-c4cccnc4[C@H](C)OC)n5CC)CC(C)(C)COC(=O)[C@@H]4CCCN(N4)C3=O)C(C)C)CC2)C1` (atropisomer, axis not shown) [EA124], in the data set with NCI-H358 (K-Ras G12C), the IC50 is over 1000 nM. Still for that read-out and setting: the figure for `CCn1c(-c2cccnc2[C@H](C)OC)c2c3cc(ccc31)N1CCO[C@@H](C[C@H](NC(=O)[C@H](C(C)C)N(C)C(=O)N3CCC4(CC3)CN(C(=O)/C=C/CF)C4)C(=O)N3CCC[C@H](N3)C(=O)OCC(C)(C)C2)C1` (atropisomer, axis not shown) [EA128] is over 1000 nM. In the case of “tert-butyl ((6^3S,4S)-1^2-(2-((S)-1-methoxyethyl)pyridin-3-yl)-10,10-dimethyl-5,7-dioxo-1^1-(2,2,2-trifluoroethyl)-6^1,6^2,6^3,6^4,6^5,6^6-hexahydro-1^1H-8-oxa-1(5,3)-indola-6(1,3)-pyridazina-2(3,1)-azetidinacycloundecaphane-4-yl)carbamate”, in data set [1] (ester bond, EDCI/HOBt/DIEA, 6.4 mM, 30.0 °C), the ring closure, isolated yield came to 37%. For the compound “tert-butyl ((6^3S, 4S)-1^2-(2-((S)-1-methoxyethyl) pyridin-3-yl)-10,10-dimethyl-5,7-dioxo-1^1-(2,2,2-trifluoroethyl)-6^1,6^2,6^3,6^4,6^5,6^6-hexahydro-1^1H-8-oxa-1(5,3)-indola-6(1,3)-pyridazina-2(3,1)-piperidinacycloundecaphane-4-yl)carbamate”, the ring closure, isolated yield in data set [1] (ester bond, EDCI/HOBt/DIEA, 6.1 mM) was 8% and 9%.

(Values after US20240277796A1, “METHODS FOR INHIBITING RAS” (Revolution Medicines, Inc., priority 2021, published 2024).)
